ChEMBL document CHEMBL4483862, “Open-source discovery of chemical leads for next-generation chemoprotective antimalarials” (2018)

Test system: Plasmodium berghei
Assay: Luciferase/luciferin-expressing antifolate-resistant parasites were used to infect a culture of HepG2 cells that were pre-incubated with compounds. Infected hepatocytes emit light due to the luciferase reaction. Assay results are presented as the percent inhibition of light emission compared to control. […]
Type: functional
Details: sporozoite; for IC90: read-out: LUCIFERASE INFECTION ASSAY - IC90
[1] = read-out: LUCIFERASE INFECTION ASSAY - IC50

Compound: Cc1ccc(-n2c(SCC(=O)NCCN3C(=O)S/C(=C\c4ccc(C(C)(C)C)cc4)C3=O)nc3sc4c(c3c2=O)CCCC4)c(C)c1
- IC50 [1]: > 10 µM
- IC90: > 10 µM

Compound: CCc1ccc(-c2noc(CN3CCN(C(=O)c4ccccc4)CC3)n2)cc1
- IC50 (HEPG2TOX_HILL_SLOPE 8.06, HEPG2TOX_R_SQUARED 0.791, read-out: LUCIFERASE INFECTION ASSAY - IC50): > 10 µM
- IC90: > 10 µM

Compound: c1ccc(-c2csc3nc(CN4CCCCC4)nc(Sc4nnc(-c5cccnc5)o4)c23)cc1
- IC50 (HEPG2TOX_HILL_SLOPE 3.21, 5.75, HEPG2TOX_R_SQUARED 0.957, 0.718, PBLUC_HILL_SLOPE 33.6, 11.3, PBLUC_R_SQUARED 0.628, 0.512, read-out: LUCIFERASE INFECTION ASSAY - IC50): 3.23 µM
- IC90: 3.67 µM

Compound: Cc1nn(-c2ccccc2)c(C)c1C(=O)Nc1nc2c(s1)CCCC2
- IC50 (HEPG2TOX_HILL_SLOPE 2.86, HEPG2TOX_R_SQUARED 0.355, PBLUC_HILL_SLOPE 1.92, 0.823, PBLUC_R_SQUARED 0.870, 0.934, read-out: LUCIFERASE INFECTION ASSAY - IC50): 0.574 µM
- IC90: 4.22 µM

Compound: CCOc1ccc(CCC2CCN(C(=O)Cn3c(=O)[nH]c(=O)c4ccccc43)CC2)cc1
- IC50 (HEPG2TOX_HILL_SLOPE 1.65, HEPG2TOX_R_SQUARED 0.957, PBLUC_HILL_SLOPE 2.43, PBLUC_R_SQUARED 0.244, read-out: LUCIFERASE INFECTION ASSAY - IC50): 5.37 µM
- IC90: > 10 µM

Compound: Cc1ccc(NC(=O)c2cc(-c3ccc4c(c3)OCCO4)nc3c2cnn3C(C)C)nc1
- IC50 [1]: > 10 µM
- IC90: > 10 µM

Compound: CC(C)Oc1cccc(C(=O)N2C(C)CCCC2C)c1 (stereo unspecified)
- IC50 [1]: > 12 µM
- IC90: > 12 µM

Compound: Cc1cccc(NC(=O)CSc2nc3ccccc3c3nc(C)nn23)c1
- IC50 (HEPG2TOX_HILL_SLOPE 1.51, HEPG2TOX_R_SQUARED 0.99, PBLUC_HILL_SLOPE 1.83, PBLUC_R_SQUARED 0.897, read-out: LUCIFERASE INFECTION ASSAY - IC50): 0.237 µM
- IC90: 0.789 µM

Compound: COc1cccc(N(C)S(=O)(=O)c2cccc3cc(C)cnc23)n1
- IC50 (PBLUC_HILL_SLOPE 18.8, PBLUC_R_SQUARED 0.316, read-out: LUCIFERASE INFECTION ASSAY - IC50): 3.4 µM
- IC90: 3.82 µM

Compound: CCc1cc(Cl)n2nc(C(=O)OC)nc2n1
- IC50 [1]: > 10 µM
- IC90: > 10 µM

Compound: Cc1cccc(COC(=O)C2CCN(C3=NS(=O)(=O)c4ccccc43)CC2)c1
- IC50 [1]: > 10 µM
- IC90: > 10 µM

Compound: CC(=O)c1c(F)cccc1N1CCC(c2nc3ccccc3[nH]2)CC1
- IC50 [1]: 2.87 µM
- IC90: 5.87 µM

Compound: CCC(C)(C)C1CCC2(CC1)NC(N)=Nc1nc3ccccc3n12 (stereo unspecified)
- IC50 (PBLUC_HILL_SLOPE 13.4, PBLUC_R_SQUARED 0.322, read-out: LUCIFERASE INFECTION ASSAY - IC50): 2.81 µM
- IC90: 3.31 µM

Compound: CC(C)(C)C(=O)COC(=O)c1ccc(-c2ccc(O)cc2)cc1
- IC50 [1]: > 10 µM
- IC90: > 10 µM

Compound: O=C(NNc1cccc(F)n1)C(F)(F)F
- IC50 (PBLUC_HILL_SLOPE 2.9, PBLUC_R_SQUARED 0.705, read-out: LUCIFERASE INFECTION ASSAY - IC50): 0.174 µM
- IC90: 0.37 µM

Compound: Cn1ccc2cc(-c3cn4c(-c5cccc(F)c5)cnc4cn3)ccc21
- IC50 (HEPG2TOX_HILL_SLOPE 1.6, HEPG2TOX_R_SQUARED 0.918, PBLUC_HILL_SLOPE 3.4, PBLUC_R_SQUARED 0.713, read-out: LUCIFERASE INFECTION ASSAY - IC50): 1.14 µM
- IC90: 2.18 µM

Compound: CC(C)c1ccc(NC(=O)C2=CN3CCN(Cc4ccc(F)cc4)C(=O)N=C3O2)cc1
- IC50 [1]: > 10 µM
- IC90: > 10 µM

Compound: CCc1ccc2nc(NC(=O)c3nccnc3N)sc2c1
- IC50 (HEPG2TOX_HILL_SLOPE 7.58, HEPG2TOX_R_SQUARED 0.761, PBLUC_HILL_SLOPE 15.5, PBLUC_R_SQUARED 0.446, read-out: LUCIFERASE INFECTION ASSAY - IC50): 9.33 µM
- IC90: > 10 µM

Compound: COC(=O)c1c(C)[nH]c(-c2csc(N3CCCCC3)n2)c1C
- IC50 [1]: > 10 µM
- IC90: > 10 µM

Compound: COc1ccc(-c2cnc3ccc(Cc4ccc(F)cc4)nn23)cc1OC
- IC50 (HEPG2TOX_HILL_SLOPE 7.18, HEPG2TOX_R_SQUARED 0.189, PBLUC_HILL_SLOPE 3.8, PBLUC_R_SQUARED 0.0747, read-out: LUCIFERASE INFECTION ASSAY - IC50): 3.43 µM
- IC90: 6.11 µM

Compound: O=C(NCCSCc1csc2ccc(Cl)cc12)Nc1ccc(Cl)cc1
- IC50 [1]: > 8.02 µM
- IC90: > 8.02 µM

Compound: Clc1ccc(-c2cc(-c3csc(Nc4ccccc4Cl)n3)on2)c(Cl)c1
- IC50 (HEPG2TOX_HILL_SLOPE 18.2, HEPG2TOX_R_SQUARED 0.802, PBLUC_HILL_SLOPE 3.06, PBLUC_R_SQUARED 0.131, read-out: LUCIFERASE INFECTION ASSAY - IC50): 7.18 µM
- IC90: > 7.81 µM

Compound: COc1cc(-c2cnc3cnc(-c4ccccc4N(C)C)cn23)ccc1O
- IC50 (HEPG2TOX_HILL_SLOPE 8.81, HEPG2TOX_R_SQUARED 0.374, PBLUC_HILL_SLOPE 9.99, PBLUC_R_SQUARED 0.0967, read-out: LUCIFERASE INFECTION ASSAY - IC50): 7.81 µM
- IC90: > 9.16 µM

Compound: O=C1C=C(c2ccc(Cl)cc2)C(=O)N1Nc1ccc(F)cc1
- IC50 (HEPG2TOX_HILL_SLOPE 7.85, HEPG2TOX_R_SQUARED 0.837, PBLUC_HILL_SLOPE 13.2, PBLUC_R_SQUARED 0.145, read-out: LUCIFERASE INFECTION ASSAY - IC50): 10.2 µM
- IC90: > 10.4 µM

Compound: OC(C#CC(O)(c1ccccc1)c1ccccc1)(c1ccccc1)c1ccccc1
- IC50 [1]: > 8.45 µM
- IC90: > 8.45 µM

Compound: Cn1c(-c2cncc(C#Cc3ccccc3)c2)n[nH]c1=S
- IC50 [1]: > 11.3 µM
- IC90: > 11.3 µM

Compound: CCCc1cc(=O)n2ncc(-c3ccc(Cl)cc3)c2[nH]1
- IC50 (HEPG2TOX_HILL_SLOPE 1.31, HEPG2TOX_R_SQUARED 0.875, PBLUC_HILL_SLOPE 1.68, PBLUC_R_SQUARED 0.622, read-out: LUCIFERASE INFECTION ASSAY - IC50): 0.989 µM
- IC90: 3.65 µM

Compound: Oc1cccnc1NC(c1ccc(Br)cc1)c1ccc2cccnc2c1O (stereo unspecified)
- IC50 (FFLUC_HILL_SLOPE 24.2, FFLUC_R_SQUARED 0.301, HEPG2TOX_HILL_SLOPE 1.67, HEPG2TOX_R_SQUARED 0.953, PBLUC_HILL_SLOPE 5.65, PBLUC_R_SQUARED 0.637, read-out: LUCIFERASE INFECTION ASSAY - IC50): 5.24 µM
- IC90: 7.73 µM

Compound: Cn1c(=O)c2cc3cc(Cl)ccc3nc2c2c(=O)n(-c3ccccc3)c(=O)n(-c3ccccc3)c21
- IC50 (HEPG2TOX_HILL_SLOPE 9.44, HEPG2TOX_R_SQUARED 0.957, PBLUC_HILL_SLOPE 32.7, PBLUC_R_SQUARED 0.0582, read-out: LUCIFERASE INFECTION ASSAY - IC50): 6.86 µM
- IC90: > 6.86 µM

Compound: O=[N+]([O-])c1cccc(-c2csc(-n3nccc3C(F)(F)F)n2)c1
- IC50 [1]: > 10 µM
- IC90: > 10 µM

Compound: O=[N+]([O-])c1ccc(SCCO)c2nonc12
- IC50 (HEPG2TOX_HILL_SLOPE 4.76, HEPG2TOX_R_SQUARED 0.8, PBLUC_HILL_SLOPE 15.1, PBLUC_R_SQUARED 0.318, read-out: LUCIFERASE INFECTION ASSAY - IC50): 11 µM
- IC90: 12.8 µM

Compound: CC(=O)Nc1cccc(-c2cn3c(-c4ccc(C#N)cc4)cnc3cn2)c1
- IC50 (PBLUC_HILL_SLOPE 15, PBLUC_R_SQUARED 0.251, read-out: LUCIFERASE INFECTION ASSAY - IC50): 8.2 µM
- IC90: > 9.34 µM

Compound: CCCCNC(=O)c1c(NC(=O)c2ccc(C(=O)OC)cc2)nc2ccccn12
- IC50 (PBLUC_HILL_SLOPE 12.3, PBLUC_R_SQUARED 0.245, read-out: LUCIFERASE INFECTION ASSAY - IC50): 7.76 µM
- IC90: > 8.37 µM

Compound: CC(=O)N1CCc2cc(S(=O)(=O)Nc3ccc(Cl)cc3)ccc21
- IC50 (PBLUC_HILL_SLOPE 0.924, PBLUC_R_SQUARED 0.105, read-out: LUCIFERASE INFECTION ASSAY - IC50): > 9.41 µM
- IC90: > 9.41 µM

Compound: CC(C)CCOc1ccc(C(C2C(=O)CC(C)(C)CC2=O)C2C(=O)CC(C)(C)CC2=O)cc1
- IC50 (FFLUC_HILL_SLOPE 1.63, FFLUC_R_SQUARED 0.537, read-out: LUCIFERASE INFECTION ASSAY - IC50): > 10 µM
- IC90: > 10 µM

Compound: CC(C)NC(=O)N1CCc2nc(NCc3cccc(Oc4ccccc4)c3)ncc2C1
- IC50 (HEPG2TOX_HILL_SLOPE 2.9, HEPG2TOX_R_SQUARED 0.984, PBLUC_HILL_SLOPE 15.1, PBLUC_R_SQUARED 0.233, read-out: LUCIFERASE INFECTION ASSAY - IC50): 2.86 µM
- IC90: 3.31 µM

Compound: CCOc1c(Cl)cc(C2CC(=O)N(Cc3ccccc3)c3nc4ccccc4n32)cc1OC (stereo unspecified)
- IC50 (HEPG2TOX_HILL_SLOPE 5.74, HEPG2TOX_R_SQUARED 0.547, PBLUC_HILL_SLOPE 2.97, PBLUC_R_SQUARED 0.551, read-out: LUCIFERASE INFECTION ASSAY - IC50): 5.06 µM
- IC90: > 10 µM

Compound: Cc1cc2oc3c(c2cc1NS(=O)(=O)c1cccs1)CC(C)CC3 (stereo unspecified)
- IC50 [1]: > 10 µM
- IC90: > 10 µM

Compound: Fc1ccc(CNCC2(c3ccnc(-c4ccc(Cl)cc4)c3)CC2)cc1F
- IC50 [1]: > 10 µM
- IC90: > 10 µM

Compound: NC(=O)c1ccsc1NC(=O)Cc1ccc(-c2ccccc2)cc1
- IC50 (PBLUC_HILL_SLOPE 3.68, PBLUC_R_SQUARED 0.581, read-out: LUCIFERASE INFECTION ASSAY - IC50): 2.04 µM
- IC90: 3.7 µM

Compound: Cc1nn(-c2ccccc2)c(C)c1CN(C)S(=O)(=O)c1ccc(C#N)cc1
- IC50 (PBLUC_HILL_SLOPE 18, PBLUC_R_SQUARED 0.548, read-out: LUCIFERASE INFECTION ASSAY - IC50): 0.318 µM
- IC90: 0.36 µM

Compound: CN(C)CC(=O)N1CCN(c2nc(/C=C/c3ccccc3)nc3sc4c(c23)CCCC4)CC1
- IC50 (PBLUC_HILL_SLOPE 3.64, PBLUC_R_SQUARED 0.565, read-out: LUCIFERASE INFECTION ASSAY - IC50): 2.74 µM
- IC90: 5.01 µM

Compound: Fc1ccc(CNc2ccc(-c3nc4ccccc4[nH]3)cc2)cc1
- IC50 (PBLUC_HILL_SLOPE 15.3, PBLUC_R_SQUARED 0.322, read-out: LUCIFERASE INFECTION ASSAY - IC50): 9.03 µM
- IC90: > 10.4 µM
